Results published in patent publication US11717499B2 (priority 2011, dated 2023).
Entries after “also recorded” stand apart in the source; their conditions may differ. Where two headings read alike, the source gives them in different places. Marks after values point to notes of the source that are not given here.

Columns and labels:
TNF-α = assay: Immunoblot of TNF-α expression in placental tissue; type: in vivo; conditions: DMA rescued mice vs LPS-triggered PTB mice, p<0.001
From the text: (§1) The probe was thoroughly cleaned after each sample.
(§2) Chemifluorescence was detected by exposure to an autoradiography film.

IL-6 = assay: Immunoblot of IL-6 expression in placental tissue; type: in vivo; conditions: DMA rescued mice vs LPS-triggered PTB mice, p<0.05
From the text: as §1, §2

LPS-triggered PTB = conditions: for Number of pups retained / Number of pups dropped: 50 mg/kg LPS
Procedure: Mice were then randomly assigned to the control group or one of five treatment groups. […] Additionally, a sixth group of four animals received i.p. injections of 0.5 ml PBS in lieu of LPS at the same time points and served as sham (Table 1).
After the injection at t=10 hours, mice were continually monitored; time of delivery of the first pup and number of pups dropped over time were recorded. […] All mice were sacrificed by carbon dioxide asphyxiation. The mice were autopsied at the end of experiments to confirm pregnancy and to determine the number of pups retained in utero. Placenta and uteri were harvested and stored.

IL-1β = assay: Immunoblot of IL-1β expression in placental tissue; type: in vivo; conditions: DMA rescued mice vs LPS-triggered PTB mice, p<0.01
From the text: as §1, §2

[1] = rats, cited from earlier work
[2] = system: P450-dependent monooxygenase or phase II enzyme activities; conditions: rat; cited from earlier work

| SMILES | TNF-α expression in placentas (TNF-α) | IL-6 expression in placentas (IL-6) | Number of pups retained (LPS-triggered PTB; DMA 0.2 mg/kg) | Number of pups dropped (LPS-triggered PTB; DMA 0.2 mg/kg, n=47 pups) | Number of pups retained (LPS-triggered PTB; DMA 0.39 mg/kg) | Number of pups retained (LPS-triggered PTB; DMA 0.78 mg/kg) | Number of pups retained (LPS-triggered PTB; DMA 1.56 mg/kg) | Number of pups dropped (LPS-triggered PTB; DMA 1.56 mg/kg, n=47 pups) | Number of pups retained (LPS-triggered PTB; DMA 3.1 mg/kg) | Number of pups dropped (LPS-triggered PTB; DMA 3.1 mg/kg, n=52 pups) | Prevention of PTB (LPS-triggered PTB; highest doses of DMA, 3.1 and 1.56 mg/kg) [%] | IL-1β expression in placentas (IL-1β) | Plasma level ([1]; after 24 hours) | Plasma half life [1] | Induction of hepatic monooxygenases [2] |
| --- | --- | --- | --- | --- | --- | --- | --- | --- | --- | --- | --- | --- | --- | --- | --- |
| CC(=O)N(C)C [DMA, N,N-dimethylacetamide] | suppressed | suppressed | 35 | 12 | 41 | 69 | 47 | 0*** | 52 | 0*** | 100 | significantly reduced; also recorded: suppressed |  |  |  |
| CNC(C)=O [MMA, N-monomethylacetamide] |  |  |  |  |  |  |  |  |  |  |  |  | a significant amount of MMA was still present | about 2.2 hours | did not induce any hepatic monooxygenases |
